{"source": "ChEMBL document CHEMBL4414608", "about": "“Secophragmalin-Type Limonoids from Trichilia connaroides: Isolation, Semisynthesis, and Their Cytotoxic Activities” (J Nat Prod, 2019)", "key": {"A549": {"test_system": "A549", "test": "Cytotoxicity against human A549 cells assessed as cell growth inhibition measured after 24 hrs by MTT assay", "type": "functional, cell-based", "conditions": "A549, 24 h"}, "HeLa": {"test_system": "HeLa", "test": "Cytotoxicity against human HeLa cells assessed as cell growth inhibition measured after 24 hrs by MTT assay", "type": "functional, cell-based"}, "DU-145 [1]": {"test_system": "DU-145", "test": "Cytotoxicity against human DU145 cells assessed as cell growth inhibition measured after 24 hrs by MTT assay", "type": "functional, cell-based", "conditions": "DU-145, 24 h"}, "COLO 205": {"test_system": "COLO 205", "test": "Cytotoxicity against human COLO205 cells assessed as cell growth inhibition measured after 24 hrs by MTT assay", "type": "functional, cell-based", "conditions": "COLO 205, 24 h"}, "SK-OV-3": {"test_system": "SK-OV-3", "test": "Cytotoxicity against human SKOV3 cells assessed as cell growth inhibition measured after 24 hrs by MTT assay", "type": "functional, cell-based", "conditions": "SK-OV-3, 24 h"}, "DU-145 [2]": {"test_system": "DU-145", "test": "Cell cycle arrest in human DU145 cells assessed as accumulation at G0/G1 phase at 4.2 uM measured after 24 hrs by RNase A/propidium iodide staining based flow cytometry analysis (reference value: 51.75 %)", "type": "functional"}, "DU-145 [3]": {"test_system": "DU-145", "test": "Induction of apoptosis in human DU145 cells assessed as live cells at 4.2 uM measured after 24 hrs by Annexin-V/FITC and propidium iodide staining based flow cytometry (reference value: 95.62 %)", "type": "functional"}, "DU-145 [4]": {"test_system": "DU-145", "test": "Induction of apoptosis in human DU145 cells assessed as early apoptotic cells at 4.2 uM measured after 24 hrs by Annexin-V/FITC and propidium iodide staining based flow cytometry (reference value: 0.25 %)", "type": "functional"}, "DU-145 [5]": {"test_system": "DU-145", "test": "Induction of apoptosis in human DU145 cells assessed as late apoptotic cells at 4.2 uM measured after 24 hrs by Annexin-V/FITC and propidium iodide staining based flow cytometry (reference value: 1.49 %)", "type": "functional"}, "DU-145 [6]": {"test_system": "DU-145", "test": "Induction of apoptosis in human DU145 cells assessed as necrotic cells at 4.2 uM measured after 24 hrs by Annexin-V/FITC and propidium iodide staining based flow cytometry (reference value: 2.64 %)", "type": "functional"}, "DU-145 [7]": {"test_system": "DU-145", "test": "Induction of apoptosis in human DU145 cells assessed as live cells at 7 uM measured after 24 hrs by Annexin-V/FITC and propidium iodide staining based flow cytometry (reference value: 95.62 %)", "type": "functional"}, "DU-145 [8]": {"test_system": "DU-145", "test": "Induction of apoptosis in human DU145 cells assessed as early apoptotic cells at 7 uM measured after 24 hrs by Annexin-V/FITC and propidium iodide staining based flow cytometry (reference value: 0.25 %)", "type": "functional"}, "DU-145 [9]": {"test_system": "DU-145", "test": "Induction of apoptosis in human DU145 cells assessed as late apoptotic cells at 7 uM measured after 24 hrs by Annexin-V/FITC and propidium iodide staining based flow cytometry (reference value: 1.49 %)", "type": "functional"}, "DU-145 [10]": {"test_system": "DU-145", "test": "Induction of apoptosis in human DU145 cells assessed as necrotic cells at 7 uM measured after 24 hrs by Annexin-V/FITC and propidium iodide staining based flow cytometry (reference value: 2.64 %)", "type": "functional"}, "DU-145 [11]": {"test_system": "DU-145", "test": "Induction of apoptosis in human DU145 cells assessed as increase in total apoptotic cells measured after 24 hrs by Annexin-V/FITC and propidium iodide staining based flow cytometry", "type": "functional, cell-based"}, "DU-145 [12]": {"test_system": "DU-145", "test": "Cell cycle arrest in human DU145 cells assessed as accumulation at G0/G1 phase at 3.6 uM measured after 24 hrs by RNase A/propidium iodide staining based flow cytometry analysis (reference value: 51.75 %)", "type": "functional"}, "DU-145 [13]": {"test_system": "DU-145", "test": "Induction of apoptosis in human DU145 cells assessed as live cells at 3.6 uM measured after 24 hrs by Annexin-V/FITC and propidium iodide staining based flow cytometry (reference value: 95.62 %)", "type": "functional"}, "DU-145 [14]": {"test_system": "DU-145", "test": "Induction of apoptosis in human DU145 cells assessed as early apoptotic cells at 3.6 uM measured after 24 hrs by Annexin-V/FITC and propidium iodide staining based flow cytometry (reference value: 0.25 %)", "type": "functional"}, "DU-145 [15]": {"test_system": "DU-145", "test": "Induction of apoptosis in human DU145 cells assessed as late apoptotic cells at 3.6 uM measured after 24 hrs by Annexin-V/FITC and propidium iodide staining based flow cytometry (reference value: 1.49 %)", "type": "functional"}, "DU-145 [16]": {"test_system": "DU-145", "test": "Induction of apoptosis in human DU145 cells assessed as necrotic cells at 3.6 uM measured after 24 hrs by Annexin-V/FITC and propidium iodide staining based flow cytometry (reference value: 2.64 %)", "type": "functional"}, "DU-145 [17]": {"test_system": "DU-145", "test": "Induction of apoptosis in human DU145 cells assessed as live cells at 6 uM measured after 24 hrs by Annexin-V/FITC and propidium iodide staining based flow cytometry (reference value: 95.62 %)", "type": "functional"}, "DU-145 [18]": {"test_system": "DU-145", "test": "Induction of apoptosis in human DU145 cells assessed as early apoptotic cells at 6 uM measured after 24 hrs by Annexin-V/FITC and propidium iodide staining based flow cytometry (reference value: 0.25 %)", "type": "functional"}, "DU-145 [19]": {"test_system": "DU-145", "test": "Induction of apoptosis in human DU145 cells assessed as late apoptotic cells at 6 uM measured after 24 hrs by Annexin-V/FITC and propidium iodide staining based flow cytometry (reference value: 1.49 %)", "type": "functional"}, "DU-145 [20]": {"test_system": "DU-145", "test": "Induction of apoptosis in human DU145 cells assessed as necrotic cells at 6 uM measured after 24 hrs by Annexin-V/FITC and propidium iodide staining based flow cytometry (reference value: 2.64 %)", "type": "functional"}}, "note": "pIC50: −log10 of the molar value.", "data": [{"smiles": "C/C=C(\\C)C(=O)O[C@@H]1[C@]2(OC(=O)CC)C=C3C4=CC(=O)O[C@@H](c5ccoc5)[C@]4(C)CC[C@@H]3[C@@]3(C)[C@H](C[C@]1(C)[C@H]3[C@@H](O)C(=O)OC)O2", "values": [{"measurement": "pIC50", "setting": "A549", "result": "< 4.00"}, {"measurement": "pIC50", "setting": "HeLa", "result": "< 4.00"}, {"measurement": "pIC50", "setting": "DU-145 [1]", "result": 5.17}, {"measurement": "pIC50", "setting": "COLO 205", "result": "< 4.00"}, {"measurement": "pIC50", "setting": "SK-OV-3", "result": "< 4.00"}]}, {"smiles": "C/C=C(\\C)C(=O)O[C@H]1[C@]2(C)C[C@@H]3O[C@@]1(O)C=C1C4=CC(=O)O[C@@H](c5ccoc5)[C@]4(C)CC[C@@H]1[C@]3(C)[C@@H]2C(=O)C(=O)OC", "values": [{"measurement": "pIC50", "setting": "A549", "result": 4.35}, {"measurement": "pIC50", "setting": "HeLa", "result": "< 4.00"}, {"measurement": "pIC50", "setting": "DU-145 [1]", "result": "< 4.00"}, {"measurement": "pIC50", "setting": "COLO 205", "result": "< 4.00"}, {"measurement": "pIC50", "setting": "SK-OV-3", "result": "< 4.00"}]}, {"smiles": "C/C=C(\\C)C(=O)O[C@@H]1[C@]2(OC(=O)C3CC3)C=C3C4=CC(=O)O[C@@H](c5ccoc5)[C@]4(C)CC[C@@H]3[C@@]3(C)[C@H](C[C@]1(C)[C@H]3[C@@H](OC(=O)C1CC1)C(=O)OC)O2", "values": [{"measurement": "pIC50", "setting": "A549", "result": "< 4.00"}, {"measurement": "pIC50", "setting": "HeLa", "result": "< 4.00"}, {"measurement": "pIC50", "setting": "DU-145 [1]", "result": "< 4.00"}, {"measurement": "pIC50", "setting": "COLO 205", "result": "< 4.00"}, {"measurement": "pIC50", "setting": "SK-OV-3", "result": "< 4.00"}]}, {"smiles": "COC(=O)[C@H](O)[C@@H]1[C@@]2(C)C[C@@H]3O[C@@](O)(C=C4C5=CC(=O)O[C@@H](c6ccoc6)[C@]5(C)CC[C@@H]4[C@@]31C)[C@H]2O", "values": [{"measurement": "pIC50", "setting": "A549", "result": 5.02}, {"measurement": "pIC50", "setting": "HeLa", "result": "< 4.00"}, {"measurement": "pIC50", "setting": "DU-145 [1]", "result": "< 4.00"}, {"measurement": "pIC50", "setting": "COLO 205", "result": "< 4.00"}, {"measurement": "pIC50", "setting": "SK-OV-3", "result": "< 4.00"}]}, {"smiles": "C/C=C(\\C)C(=O)O[C@@H]1[C@]2(OC(=O)c3ccco3)C=C3C4=CC(=O)O[C@@H](c5ccoc5)[C@]4(C)CC[C@@H]3[C@@]3(C)[C@H](C[C@]1(C)[C@H]3[C@@H](OC(=O)c1ccco1)C(=O)OC)O2", "values": [{"measurement": "pIC50", "setting": "A549", "result": 5.12}, {"measurement": "pIC50", "setting": "HeLa", "result": "< 4.00"}, {"measurement": "pIC50", "setting": "DU-145 [1]", "result": 4.75}, {"measurement": "pIC50", "setting": "COLO 205", "result": "< 4.00"}, {"measurement": "pIC50", "setting": "SK-OV-3", "result": "< 4.00"}]}, {"smiles": "C/C=C(\\C)C(=O)O[C@@H]1[C@]2(OC(=O)CCCC)C=C3C4=CC(=O)O[C@@H](c5ccoc5)[C@]4(C)CC[C@@H]3[C@@]3(C)[C@H](C[C@]1(C)[C@H]3[C@@H](OC(=O)CCCC)C(=O)OC)O2", "values": [{"measurement": "pIC50", "setting": "A549", "result": 5.26}, {"measurement": "pIC50", "setting": "HeLa", "result": "< 4.00"}, {"measurement": "pIC50", "setting": "DU-145 [1]", "result": 5.38}, {"measurement": "pIC50", "setting": "COLO 205", "result": "< 4.00"}, {"measurement": "pIC50", "setting": "SK-OV-3", "result": "< 4.00"}, {"measurement": "Activity", "setting": "DU-145 [2]", "result": 53.27, "unit": "%"}, {"measurement": "Activity", "setting": "DU-145 [3]", "result": 93.3, "unit": "%"}, {"measurement": "Activity", "setting": "DU-145 [4]", "result": 0.86, "unit": "%"}, {"measurement": "Activity", "setting": "DU-145 [5]", "result": 3.39, "unit": "%"}, {"measurement": "Activity", "setting": "DU-145 [6]", "result": 2.45, "unit": "%"}, {"measurement": "Activity", "setting": "DU-145 [7]", "result": 89.44, "unit": "%"}, {"measurement": "Activity", "setting": "DU-145 [8]", "result": 0.92, "unit": "%"}, {"measurement": "Activity", "setting": "DU-145 [9]", "result": 5.73, "unit": "%"}, {"measurement": "Activity", "setting": "DU-145 [10]", "result": 3.91, "unit": "%"}, {"measurement": "Activity", "setting": "DU-145 [11]", "result": "Dose-dependent effect"}]}, {"smiles": "CCOC(=O)[C@H](O)[C@@H]1[C@@]2(C)C[C@@H]3O[C@@](O)(C=C4C5=CC(=O)O[C@@H](c6ccoc6)[C@]5(C)CC[C@@H]4[C@@]31C)[C@H]2O", "values": [{"measurement": "pIC50", "setting": "A549", "result": 4.79}, {"measurement": "pIC50", "setting": "HeLa", "result": "< 4.00"}, {"measurement": "pIC50", "setting": "DU-145 [1]", "result": 5.44}, {"measurement": "pIC50", "setting": "COLO 205", "result": "< 4.00"}, {"measurement": "pIC50", "setting": "SK-OV-3", "result": "< 4.00"}, {"measurement": "Activity", "setting": "DU-145 [12]", "result": 47.2, "unit": "%"}, {"measurement": "Activity", "setting": "DU-145 [13]", "result": 90.97, "unit": "%"}, {"measurement": "Activity", "setting": "DU-145 [14]", "result": 0.84, "unit": "%"}, {"measurement": "Activity", "setting": "DU-145 [15]", "result": 5.39, "unit": "%"}, {"measurement": "Activity", "setting": "DU-145 [16]", "result": 2.8, "unit": "%"}, {"measurement": "Activity", "setting": "DU-145 [17]", "result": 89.27, "unit": "%"}, {"measurement": "Activity", "setting": "DU-145 [18]", "result": 0.86, "unit": "%"}, {"measurement": "Activity", "setting": "DU-145 [19]", "result": 6.45, "unit": "%"}, {"measurement": "Activity", "setting": "DU-145 [20]", "result": 3.42, "unit": "%"}, {"measurement": "Activity", "setting": "DU-145 [11]", "result": "Dose-dependent effect"}]}]}
